Numbered stars: 1 amine (or outer) side, 2 acyl side, 3 side chain; on linkers, the order of the positions; unused ones are H or OH. Bridge positions count the residues as written; N and C are the ends. Square brackets hold non-standard residues; d marks the D form. Peptide text beside a SMILES is read from it. Trp(7-aza,1-CH2COOH) = N[C@@H](Cc1cn(CC(=O)O)c2ncccc12)C(=O)O; Trp(βS-Me,7-OMe) = COc1cccc2c([C@H](C)[C@H](N)C(=O)O)c[nH]c12; Phe(4-SO2NH2) = N[C@@H](Cc1ccc(S(N)(=O)=O)cc1)C(=O)O; dPro(trans-4-NMe2) = CN(C)[C@@H]1CN[C@@H](C(=O)O)C1; Trp(7-CN) = N#Cc1cccc2c(C[C@H](N)C(=O)O)c[nH]c12; Trp(7-Cl) = N[C@@H](Cc1c[nH]c2c(Cl)cccc12)C(=O)O; Ala(pyrimidin-5-yl) = N[C@@H](Cc1cncnc1)C(=O)O; Phe(3-CONH2) = NC(=O)c1cccc(C[C@H](N)C(=O)O)c1; Phe(3-COOH) = N[C@@H](Cc1cccc(C(=O)O)c1)C(=O)O; Phe(4-CONH2) = NC(=O)c1ccc(C[C@H](N)C(=O)O)cc1; Phe(4-COOH) = N[C@@H](Cc1ccc(C(=O)O)cc1)C(=O)O; Trp(7-aza) = N[C@@H](Cc1c[nH]c2ncccc12)C(=O)O; Ala(thiazol-5-yl) = N[C@@H](Cc1cncs1)C(=O)O; 3Pal(6-OMe) = COc1ccc(C[C@H](N)C(=O)O)cn1; Tyr(3-OMe) = COc1cc(C[C@H](N)C(=O)O)ccc1O; X41 = O=C([C@@H]1C[C@H](O)CCN1[*:1])[*:2]; Pip(5R-OH) = O=C(O)[C@@H]1CC[C@@H](O)CN1; X1 = O=C([C@@H]1CC[C@H](N[*:1])C1)[*:2]; Pip(4-aza) = O=C(O)[C@@H]1CNCCN1; 4Pal = N[C@@H](Cc1ccncc1)C(=O)O; NMeE = CN[C@@H](CCC(=O)O)C(=O)O; dNMeE = CN[C@H](CCC(=O)O)C(=O)O; d(αMeP) = C[C@]1(C(=O)O)CCCN1; NMeS = CN[C@@H](CO)C(=O)O; αMeS = C[C@](N)(CO)C(=O)O; Nle = CCCC[C@H](N)C(=O)O; Sar = CNCC(=O)O
Molecular target: T1, TNFα-induced NF-κB signal transduction pathway (TNFR1 signaling) in THP-1 cells (Homo sapiens, UniProt P19438)
T1 sequence (P19438 30-455): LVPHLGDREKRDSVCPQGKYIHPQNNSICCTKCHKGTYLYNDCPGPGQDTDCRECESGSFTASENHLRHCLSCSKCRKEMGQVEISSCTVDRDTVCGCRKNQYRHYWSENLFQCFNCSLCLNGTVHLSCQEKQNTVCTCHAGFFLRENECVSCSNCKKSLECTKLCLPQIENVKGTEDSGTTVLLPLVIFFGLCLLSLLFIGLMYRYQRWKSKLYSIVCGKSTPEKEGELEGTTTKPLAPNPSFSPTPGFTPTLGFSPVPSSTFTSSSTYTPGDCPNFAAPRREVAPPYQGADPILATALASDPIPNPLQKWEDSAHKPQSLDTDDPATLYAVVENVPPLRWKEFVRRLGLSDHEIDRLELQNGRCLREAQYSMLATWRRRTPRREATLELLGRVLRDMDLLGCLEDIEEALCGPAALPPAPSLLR
Assay: THP-1 Lucia NF-κB reporter cell assay, inhibition of TNFα-induced NF-κB signaling
Format: cell-based
Settings: THP-1 NF-κB Lucia reporter cells, 10 ng/mL TNFα, 16-18 h, secreted luciferase; read-out: THP-1 IC50
Method: C. Procedure for THP-1 Lucia NF-κB cells
The inhibition of TNFα-induced NF-κB signal transduction pathways was evaluated in THP-1 cells. THP-1 cells harboring NF-κB-inducible Lucia™ reporter gene (InvivoGen, cat. #thp1-nfkb) designed for monitoring NF-κB signal transduction pathway was employed to assess the inhibitory effect macrocyclic peptides on TNFR1 signaling. The cells were cultured in media containing RPMI 1640, 2 mM L-glutamine, 25 mM HEPES, 10% heat-inactivated fetal bovine serum with appropriate selection antibiotics. Assays were performed in media that was devoid of selection antibiotics. For profiling, 125 nL of peptides in DMSO (10 mM) were dispensed into Falcon® 384-well Optilux white/clear flat bottom TC-treated microtest microplate (Corning, cat. #353963) using Echo® 555. […] A suspension of 1 million cells/mL was dispensed at 20 μL/well in a 384-well plate to a density of 20,000 cells/well and pre-incubated with peptides at 37° C. for 1 h. Subsequently, 5 μL of TNF containing media (recombinant human TNFα; R&D Systems USA, cat. #210-TA-005/CF) or TNF-free media (for controls) was added to the wells. The final concentration of TNFα in the assay in 10 ng/mL. After o.n. incubation at 37° C. (16-18 h), 5 μL of supernatant was aspirated and transferred to a 384-well microplate (PerkinElmer, cat. #6007680) for measurement of secreted luciferase activity with 25 μL of QUANTI-Luc™ luminescence assay reagent (InvivoGen, cat. #rep-qlc1) in each well. The luminescence was measured in EnVision® Multimode Plate Reader (PerkinElmer). Dose response curves were analyzed using a 4-parameter logistic model to calculate IC50 values, reported in Table 2, using TIBCO® Spotfire® software employing appropriate Minimum and Maximum controls.

| SMILES | IC50 |
| --- | --- |
| CCCC[C@@H]1NC(=O)[C@@H]2CC[C@@H](C2)NC(=O)[C@H]([C@@H](C)c2c[nH]c3c(OC)cccc23)NC(=O)CN(C)C(=O)[C@H](Cc2ccc(O)cc2)NC(=O)[C@H](Cc2ccc(C(=O)O)cc2)NC(=O)[C@](C)(CO)NC(=O)[C@H](Cc2c[nH]c3c(Cl)cccc23)NC(=O)[C@H](Cc2cncs2)NC(=O)[C@H](CC(N)=O)NC(=O)[C@H](CCC(=O)O)N(C)C(=O)[C@H](Cc2c[nH]c3ccccc23)NC(=O)[C@@H]2CNCCN2C(=O)[C@H](Cc2ccncc2)NC1=O [SEQ ID NO. 138] (cyclo([4Pal][Pip(4-aza)]W[NMeE]N[Ala(thiazol-5-yl)][Trp(7-Cl)][αMeS][Phe(4-COOH)]Y[Sar][Trp(βS-Me,7-OMe)][X1][Nle])) | 2 nM |
| CCCC[C@@H]1NC(=O)[C@@H]2CC[C@@H](C2)NC(=O)[C@H]([C@@H](C)c2c[nH]c3c(OC)cccc23)NC(=O)CN(C)C(=O)[C@H](Cc2ccc(O)cc2)NC(=O)[C@H](Cc2ccc(C(=O)O)cc2)NC(=O)[C@](C)(CO)NC(=O)[C@H](Cc2c[nH]c3c(Cl)cccc23)NC(=O)[C@H](Cc2ccc(OC)nc2)NC(=O)[C@H](CC(N)=O)NC(=O)[C@H](CCC(=O)O)N(C)C(=O)[C@H](Cc2c[nH]c3ccccc23)NC(=O)[C@@H]2CNCCN2C(=O)[C@H](Cc2ccncc2)NC1=O [SEQ ID NO. 100] (cyclo([4Pal][Pip(4-aza)]W[NMeE]N[3Pal(6-OMe)][Trp(7-Cl)][αMeS][Phe(4-COOH)]Y[Sar][Trp(βS-Me,7-OMe)][X1][Nle])) | 1.3 nM |
| CCCC[C@@H]1NC(=O)CSC[C@@H](C(N)=O)NC(=O)[C@H]([C@@H](C)c2c[nH]c3c(OC)cccc23)NC(=O)CN(C)C(=O)[C@H](Cc2ccc(O)cc2)NC(=O)[C@H](Cc2ccc(C(=O)O)cc2)NC(=O)[C@](C)(CO)NC(=O)[C@H](Cc2c[nH]c3c(Cl)cccc23)NC(=O)[C@H](Cc2ccncc2)NC(=O)[C@H](CC(N)=O)NC(=O)[C@H](CCC(=O)O)N(C)C(=O)[C@H](Cc2c[nH]c3ncccc23)NC(=O)[C@@H]2CNCCN2C(=O)[C@H](Cc2cncnc2)NC1=O [SEQ ID NO. 65] ({CH2CO}-[Nle][Ala(pyrimidin-5-yl)][Pip(4-aza)][Trp(7-aza)][NMeE]N[4Pal][Trp(7-Cl)][αMeS][Phe(4-COOH)]Y[Sar][Trp(βS-Me,7-OMe)]C-NH2; thioether N-14) | 4 nM |
| CCCC[C@@H]1NC(=O)CSC[C@@H](C(N)=O)NC(=O)[C@H]([C@@H](C)c2c[nH]c3c(OC)cccc23)NC(=O)CN(C)C(=O)[C@H](Cc2ccc(O)cc2)NC(=O)[C@H](Cc2ccc(C(=O)O)cc2)NC(=O)[C@](C)(CO)NC(=O)[C@H](Cc2c[nH]c3c(Cl)cccc23)NC(=O)[C@H](Cc2ccncc2)NC(=O)[C@H](CC(N)=O)NC(=O)[C@@]2(C)CCCN2C(=O)[C@H](Cc2c[nH]c3ccccc23)NC(=O)[C@@H]2CNCCN2C(=O)[C@H](Cc2ccncc2)NC1=O [SEQ ID NO. 76] ({CH2CO}-[Nle][4Pal][Pip(4-aza)]W[d(αMeP)]N[4Pal][Trp(7-Cl)][αMeS][Phe(4-COOH)]Y[Sar][Trp(βS-Me,7-OMe)]C-NH2; thioether N-14) | 4.7 nM |
| CCCC[C@@H]1NC(=O)CSC[C@@H](C(N)=O)NC(=O)[C@H]([C@@H](C)c2c[nH]c3c(OC)cccc23)NC(=O)CN(C)C(=O)[C@H](Cc2ccc(O)cc2)NC(=O)[C@H](Cc2ccc(C(=O)O)cc2)NC(=O)[C@](C)(CO)NC(=O)[C@H](Cc2c[nH]c3c(Cl)cccc23)NC(=O)[C@H](Cc2ccncc2)NC(=O)[C@H](CC(N)=O)NC(=O)[C@H](CCC(=O)O)N(C)C(=O)[C@H](Cc2c[nH]c3ccccc23)NC(=O)[C@@H]2C[C@H](O)CCN2C(=O)[C@H](Cc2ccncc2)NC1=O [SEQ ID NO. 71] ({CH2CO}-[Nle][4Pal][X41]W[NMeE]N[4Pal][Trp(7-Cl)][αMeS][Phe(4-COOH)]Y[Sar][Trp(βS-Me,7-OMe)]C-NH2; thioether N-14) | 2.8 nM |
| CCCC[C@@H]1NC(=O)[C@@H]2CC[C@@H](C2)NC(=O)[C@H]([C@@H](C)c2c[nH]c3c(OC)cccc23)NC(=O)CN(C)C(=O)[C@H](Cc2ccc(O)c(OC)c2)NC(=O)[C@H](Cc2ccc(C(=O)O)cc2)NC(=O)[C@](C)(CO)NC(=O)[C@H](Cc2c[nH]c3c(Cl)cccc23)NC(=O)[C@H](Cc2ccncc2)NC(=O)[C@H](CC(N)=O)NC(=O)[C@H](CCC(=O)O)N(C)C(=O)[C@H](Cc2c[nH]c3ccccc23)NC(=O)[C@@H]2CNCCN2C(=O)[C@H](Cc2ccncc2)NC1=O [SEQ ID NO. 24] (cyclo([4Pal][Trp(7-Cl)][αMeS][Phe(4-COOH)][Tyr(3-OMe)][Sar][Trp(βS-Me,7-OMe)][X1][Nle][4Pal][Pip(4-aza)]W[NMeE]N)) | 0.7 nM |
| CCCC[C@@H]1NC(=O)[C@@H]2CC[C@@H](C2)NC(=O)[C@H]([C@@H](C)c2c[nH]c3c(OC)cccc23)NC(=O)CN(C)C(=O)[C@H](Cc2ccc(C(=O)O)cc2)NC(=O)[C@H](Cc2ccc(C(N)=O)cc2)NC(=O)[C@](C)(CO)NC(=O)[C@H](Cc2c[nH]c3c(C#N)cccc23)NC(=O)[C@H](Cc2ccc(S(N)(=O)=O)cc2)NC(=O)[C@H](CC(N)=O)NC(=O)[C@@H](CCC(=O)O)N(C)C(=O)[C@H](Cc2c[nH]c3ncccc23)NC(=O)[C@@H]2CC[C@@H](O)CN2C(=O)[C@H](Cc2ccncc2)NC1=O [SEQ ID NO. 133] (cyclo([4Pal][Pip(5R-OH)][Trp(7-aza)][dNMeE]N[Phe(4-SO2NH2)][Trp(7-CN)][αMeS][Phe(4-CONH2)][Phe(4-COOH)][Sar][Trp(βS-Me,7-OMe)][X1][Nle])) | 1.4 nM |
| CCCC[C@@H]1NC(=O)[C@@H]2CC[C@@H](C2)NC(=O)[C@H]([C@@H](C)c2c[nH]c3c(OC)cccc23)NC(=O)CN(C)C(=O)[C@H](Cc2ccc(C(N)=O)cc2)NC(=O)[C@H](Cc2ccc(C(N)=O)cc2)NC(=O)[C@](C)(CO)NC(=O)[C@H](Cc2c[nH]c3c(C#N)cccc23)NC(=O)[C@H](Cc2ccc(C(=O)O)cc2)NC(=O)[C@H](CC(N)=O)NC(=O)[C@H]2C[C@H](N(C)C)CN2C(=O)[C@H](Cc2cn(CC(=O)O)c3ncccc23)NC(=O)[C@@H]2CC[C@@H](O)CN2C(=O)[C@H](Cc2ccncc2)NC1=O [SEQ ID NO. 32] (cyclo([4Pal][Pip(5R-OH)][Trp(7-aza,1-CH2COOH)][dPro(trans-4-NMe2)]N[Phe(4-COOH)][Trp(7-CN)][αMeS][Phe(4-CONH2)][Phe(4-CONH2)][Sar][Trp(βS-Me,7-OMe)][X1][Nle])) | 0.6 nM |
| CCCC[C@@H]1NC(=O)CSC[C@@H](C(N)=O)NC(=O)[C@H]([C@@H](C)c2c[nH]c3c(OC)cccc23)NC(=O)CN(C)C(=O)[C@H](Cc2cccc(C(N)=O)c2)NC(=O)[C@H](Cc2ccc(C(=O)O)cc2)NC(=O)[C@](C)(CO)NC(=O)[C@H](Cc2c[nH]c3c(Cl)cccc23)NC(=O)[C@H](Cc2ccncc2)NC(=O)[C@H](CC(N)=O)NC(=O)[C@H](CCC(=O)O)N(C)C(=O)[C@H](Cc2c[nH]c3ccccc23)NC(=O)[C@H](CO)N(C)C(=O)[C@H](Cc2ccncc2)NC1=O [SEQ ID NO. 270] ({CH2CO}-[Nle][4Pal][NMeS]W[NMeE]N[4Pal][Trp(7-Cl)][αMeS][Phe(4-COOH)][Phe(3-CONH2)][Sar][Trp(βS-Me,7-OMe)]C-NH2; thioether N-14) | 2.2 nM |
| CCCC[C@@H]1NC(=O)[C@@H]2CC[C@@H](C2)NC(=O)[C@H]([C@@H](C)c2c[nH]c3c(OC)cccc23)NC(=O)CN(C)C(=O)[C@H](Cc2ccc(O)cc2)NC(=O)[C@H](Cc2cccc(C(=O)O)c2)NC(=O)[C@](C)(CO)NC(=O)[C@H](Cc2c[nH]c3c(Cl)cccc23)NC(=O)[C@H](Cc2ccncc2)NC(=O)[C@H](CC(N)=O)NC(=O)[C@H](CCC(=O)O)N(C)C(=O)[C@H](Cc2c[nH]c3ccccc23)NC(=O)[C@@H]2CNCCN2C(=O)[C@H](Cc2ccncc2)NC1=O [SEQ ID NO. 28] (cyclo([4Pal][Trp(7-Cl)][αMeS][Phe(3-COOH)]Y[Sar][Trp(βS-Me,7-OMe)][X1][Nle][4Pal][Pip(4-aza)]W[NMeE]N)) | 1.6 nM |

Source: patent publication US20240287138A1, “CYCLIC PEPTIDES FOR INHIBITING TNF RECEPTOR 1 ACTIVITY” (Merck Sharp & Dohme LLC, priority 2023, published 2024)
